Measured values as given in the NIST ThermoML archive (doi:10.1021/je1001544).
Numbers after ± are expanded uncertainties.

How the values were obtained:
[1] = 298.15 K; 101.33 kPa; Liquid; Vibrating tube method
[2] = refractive index (Na D-line) (dimensionless); details: 298.15 K; 101.33 kPa; Liquid; Standard Abbe refractometry

| Compound | mass density [1] [kg/m3] | refractive index [2] |
| --- | --- | --- |
| CCOS(=O)(=O)[O-].CCn1cc[n+](C)c1 [1-ethyl-3-methylimidazolium ethyl sulfate] | 1237.23 ± 0.43 | 1.4791 ± 0.00037 |
| c1ccccc1 [benzene] | 873.57 ± 0.1 | 1.49774 ± 0.00031 |
| CCCCCCC [heptane] | 679.56 ± 0.18 | 1.38515 ± 0.00033 |
| CCCCCC [hexane] | 655.19 ± 0.25 | 1.37234 ± 0.00037 |
| CCCCCCCCC [nonane] | 713.99 ± 0.25 | 1.40326 ± 0.00037 |
| CCCCCCCC [octane] | 698.6 ± 0.18 | 1.39519 ± 0.00033 |
